Legend:
Assay in all cases: relative viability (nuclei count vs DMSO), 5 days (fraction); higher = more cells survive
Imatinib + Tozasertib = compound: Cc1ccc(NC(=O)c2ccc(CN3CCN(C)CC3)cc2)cc1Nc1nccc(-c2cccnc2)n1 [Imatinib] + Cc1cc(Nc2cc(N3CCN(C)CC3)nc(Sc3ccc(NC(=O)C4CC4)cc3)n2)n[nH]1 [Tozasertib] (partner 0.1 µM)
Method in brief: (§1)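 Nuclei were stained with Hoechst during a one-step fixation (final 0.05% Triton X-100, 1% formaldehyde, 1 ug/ml Hoechst) carried out 5 days after dosing, then counted on 4× images. The cells, lung cancer lines in 1536-well plates, had been dosed by pin tool the day after seeding with one drug alone or a fixed anchor-drug dose plus five library-drug doses (not always all listed) in √10 steps. Relative viability is the nuclei count in treated wells divided by that in vehicle wells, and each value is the median of duplicate plates.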

Imatinib + Navitoclax = compound: Cc1ccc(NC(=O)c2ccc(CN3CCN(C)CC3)cc2)cc1Nc1nccc(-c2cccnc2)n1 [Imatinib] + CC1(C)CCC(c2ccc(Cl)cc2)=C(CN2CCN(c3ccc(C(=O)NS(=O)(=O)c4ccc(N[C@H](CCN5CCOCC5)CSc5ccccc5)c(S(=O)(=O)C(F)(F)F)c4)cc3)CC2)C1 [Navitoclax] (partner 0.5 µM)
Method in brief: as §1

Imatinib + Palbociclib = compound: Cc1ccc(NC(=O)c2ccc(CN3CCN(C)CC3)cc2)cc1Nc1nccc(-c2cccnc2)n1 [Imatinib] + CC(=O)c1c(C)c2cnc(Nc3ccc(N4CCNCC4)cn3)nc2n(C2CCCC2)c1=O [Palbociclib] (partner 0.5 µM)
Method in brief: as §1

Imatinib + Vorinostat = compound: Cc1ccc(NC(=O)c2ccc(CN3CCN(C)CC3)cc2)cc1Nc1nccc(-c2cccnc2)n1 [Imatinib] + O=C(CCCCCCC(=O)Nc1ccccc1)NO [Vorinostat] (partner 1 µM)
Method in brief: as §1

Cell Line	relative viability (Imatinib + Tozasertib; first compound 0.02 µM)	relative viability (Imatinib + Tozasertib; first compound 0.06325 µM)	relative viability (Imatinib + Tozasertib; first compound 0.2 µM)	relative viability (Imatinib + Tozasertib; first compound 0.6325 µM)	relative viability (Imatinib + Tozasertib; first compound 2 µM)	relative viability (Imatinib + Navitoclax; first compound 0.02 µM)	relative viability (Imatinib + Navitoclax; first compound 0.06325 µM)	relative viability (Imatinib + Navitoclax; first compound 0.2 µM)	relative viability (Imatinib + Navitoclax; first compound 0.6325 µM)	relative viability (Imatinib + Navitoclax; first compound 2 µM)	relative viability (Imatinib + Palbociclib; first compound 0.02 µM)	relative viability (Imatinib + Palbociclib; first compound 0.06325 µM)	relative viability (Imatinib + Palbociclib; first compound 0.2 µM)	relative viability (Imatinib + Palbociclib; first compound 0.6325 µM)	relative viability (Imatinib + Palbociclib; first compound 2 µM)	relative viability (Imatinib + Vorinostat; first compound 0.06325 µM)	relative viability (Imatinib + Vorinostat; first compound 0.2 µM)	relative viability (Imatinib + Vorinostat; first compound 2 µM)	relative viability (Imatinib + Vorinostat; first compound 0.02 µM)	relative viability (Imatinib + Vorinostat; first compound 0.6325 µM)
SK-MES-1	0.994	1.02	1.13	0.906	0.821	1.41	1.29	1.33	1.37	1.44	0.318	0.336	0.321	0.316	0.294	1.37	1.29	1.09		
NCI-H2170	0.872	0.872	0.752	0.585	0.712	0.722	0.655	0.672	0.643	0.633	0.399	0.438	0.431	0.408	0.382	0.845	0.834	0.792	0.972	0.775
LCLC-103H	0.463	0.473	0.514	0.481	0.398						0.465	0.499	0.457	0.434	0.418	0.584	0.814	0.779	0.768	0.766
NCI-H1793	0.309		0.328	0.223	0.28	0.378		0.409	0.362	0.513	0.293		0.315	0.291	0.307		0.94	0.565	0.703	0.716
NCI-H1975	0.976	0.774	0.493	0.255	0.188	1.11	1.27	1.22	1.03	1.13	0.662	0.49	0.566	0.631	0.563	0.741	0.73	0.686	0.698	0.686
NCI-H520	0.474	0.509	0.366	0.424		1.24	1.14	1.18	1.04	1.12	0.25	0.21	0.198	0.242	0.213		0.662	0.729	0.7	0.922
NCI-H1915	0.468		0.458	0.385	0.341	0.788		0.807	0.759	0.777	0.523		0.556	0.456	0.518		0.516	0.471	0.613	0.461
SK-LU-1	0.336	0.322	0.316	0.303	0.28	1.14		0.885	0.861	1.01	0.427	0.427	0.418	0.34	0.425	0.832	0.798	0.748	0.87	0.793
NCI-H441	0.58	0.644	0.667	0.612	0.412	0.647	0.675	0.606	0.612	0.572	0.22	0.213	0.229	0.229	0.233	1.07	0.893	0.737	0.96	0.858
ABC-1	0.211		0.221	0.185	0.141						0.749		0.741	0.872	0.664		1.37	1.24	1.21	1.02
SW 900	0.51	0.404	0.712	0.469	0.348						0.549	0.644	0.617	0.566	0.588	0.564	0.538	0.409	0.615	0.654
NCI-H1299						1.02	1.11	1.08	1.01	1.04										
NCI-H358	0.103	0.121	0.102	0.0961	0.0939						0.159	0.138	0.153	0.142	0.146	0.83	0.642	0.729	0.863	0.692
IA-LM						0.909	0.813	1.05	0.83	0.754						0.357	1.14	0.923		1.16
NCI-H1703						1.39	1.12	0.586	0.383	0.238										
NCI-H596	0.886	0.964	0.993	0.72	0.829	1.07	0.861	1	0.876							0.481	0.59	0.623	0.648	0.586
NCI-H650	0.832	0.682	0.851	0.697	0.764						0.303	0.356	0.353	0.349	0.298	0.597	0.448	0.466	0.388	0.466
NCI-H2342	0.6	0.511	0.499	0.502	0.494						0.506	0.586	0.504	0.503	0.539	0.789	0.772	0.745	0.766	0.865
A-427	0.192		0.176	0.195	0.197	1.05		0.998	0.945	0.949	0.533	0.555	0.51	0.514	0.543					
NCI-H661	0.383	0.393	0.365	0.344	0.347						0.428	0.368	0.393	0.394	0.412	0.87	0.845	0.74	0.823	0.778
NCI-H1792						0.744	0.557	0.761	0.644	0.567	0.608	0.542	0.655	0.573	0.736					
